This passage reports LD50 and ED50 results from patent US4386090A, “Nitrogen containing 2,3-dihydro naphthalenes, compositions and use” (Delalande S.A., priority 1980, dated 1983).

Usually LD50 stands for the dose at which mortality reaches 50%. Low values mean greater toxicity, high ones lower toxicity.

A short description of one data set: acute toxicity (LD 50). The settings on record: in vivo, ip. The text has this: To illustrate the invention, there are shown in table IV below, the results obtained in these two tests and the acute toxicity (LD 50) of some compounds of formula (I).
Data set [1] has as its system mice. The data set is described as follows: analgesic activity, phenylbenzoquinone test (E. SIEGMUND). Type of data set: in vivo. Particulars: Mus musculus, ip, read-out: ED 50 analgesic property. An excerpt:
Soc. Exp. Biol. and Med. 95, 729, (1957).

Data set [2] deals with mice. The data set is described as follows: antidepressive activity, antagonism to ptosis after intravenous injection of reserpine. It counts as in vivo. Particulars: Mus musculus, ip, 1 h, i.p., ptosis observed an hour after i.v. reserpine 2 mg/kg, read-out: ED 50 antidepressive property. The text has this:
GOURET and J. THOMAS in J. Pharmacol. (Paris) (1973), 4, 401.

In the case of `Cc1cccc(C2=NC(CCN(C)C)Cc3ccccc32)c1` (stereo not drawn) [compound 32], the LD50 in “acute toxicity (LD 50)” was 67 mg/kg. In addition, the ED50 in the data set with mice [1] and with mice [2] was 6.6 mg/kg each time.
